Data as given in article PMC10877733, “Discovery and Characterization of VU0542270, the First Selective Inhibitor of Vascular Kir6.1/SUR2B KATP Channels” (Molecular Pharmacology, 2024).
Like-named read-outs stand apart in the source and are kept apart here.

Legend:
Kir6.1/SUR2B = molecular target: T1, Kir6.1/SUR2B (Homo sapiens, UniProt O60706); assay: Thallium flux assay of Kir6.1/SUR2B in HEK293 cells; assay type: cell-based; conditions: for Kir6.1/SUR2B inhibition, SAR in words: modification of the right side thiophene
T1 construct: expressed in transfected cells; also transiently transfected HEK293T
Text: The pcDNA3.1-SUR2B plasmid was generously provided by Dr. Colin Nichols (Washington University). […] Stably transfected tetracycline-regulated expression human embryonic kidney-293 (T-Rex-HEK293) cells expressing both plasmids were generated by cotransfecting cells with Lipofectamine LTX followed by antibiotic selection and clonal selection using the thallium flux assay described below. […] The cell culture media contained Dulbecco's modified Eagle's medium (Gibco, 11965-092) supplied with heat-inactivated FBS (bio-techne, Minneapolis, MN […],10%), Blasticidine HCl (Gibco, A11139-03, 10 ug/mL), Penicillin-Streptomycin (Gibco, 15140-122, 2 mM), G418 Sulfate (CORNING, Corning, NY, 30-234-CR, 1 mg/mL), and Hygromycin B (Invitrogen, Carlsbad, CA, 10687-010, 250 ug/mL). For selectivity assays, HEK293T cells were cotransfected with Kir6.x and SURX with Lipofectamine LTX and incubated for 48 hours before thallium flux assays. […] [[…] et al., 2019]). […] Dye-loaded cells were washed with assay buffer and transferred to a Panoptic Kinetic Imaging Plate Reader (Wavefront Bioscience, Franklin, TN). Control and test compound treatments were for 4 minutes prior to adding 0.5 mM chloride-free thallium stimulus buffer (Ion Bioscience) to initiate thallium flux. […] Selectivity assays against other Kir channels were performed essentially as described previously ([[…] et al., 2018]; [[…] al., 2022]). […] Data were acquired using Panoptic Software, Waveguide (Wavefront Biosciences). Raw fluorescence values were imported for analysis into custom software (VICB, Vanderbilt University). Fluorescence versus time values for each well were normalized to the initial fluorescence value [F/F0]. […] CRC data were plotted in GraphPad Prism (GraphPad Software, San Diego, CA) and fitted with a four-parameter logistic model to determine IC50 values for rank-ordering hit potency.

[1] = tested on: isolated mouse ductus arteriosus vessels; assay: Pressure myography of isolated ductus arteriosus vessels; conditions: term gestation mouse DA
Experimental: CD-1 mice were maintained at Vanderbilt University Medical Center in accordance with protocols approved by the Institutional Animal Care and Use Committee. Timed matings were performed to produce offspring at specific stages of development. The presence of a vaginal plug was designated as embryonic day 1.
Term-gestation (embryonic day 19) fetal mouse DAs were isolated and mounted on glass pipet tips in microvessel perfusion chambers as previously reported ([Hooper et al., 2016]). Deoxygenated Krebs buffer was warmed to 37°C and circulated throughout the chamber. Vessels were pressurized in a stepwise manner to physiologic neonatal mouse mean arterial pressure (20 mmHg) and then challenged with 50 mM KCl to test reactivity. […] For dose-response studies, vessels were first dilated by circulating Krebs buffer bubbled with 95% nitrogen, 5% CO2 to mimic the hypoxic conditions of the womb. […] Following each dose, lumen diameters were allowed to plateau (approximately 20 minutes) before the next dose was added. Continuous lumen diameter measurements were recorded using a digital image capture system (IonOptix). An N of >6 vessels from at least three different litters was used for each experimental condition. Changes in lumen diameter are represented as the percent change in diameter compared with the baseline lumen diameter of vessels prior to drug exposure. […] Values represent mean ± S.D.

Kir6.2/SUR1 = molecular target: T2, Kir6.2/SUR1 (Homo sapiens, UniProt Q09428); assay: Thallium flux assay of Kir6.2/SUR1 in HEK293 cells; assay type: cell-based; conditions: T-Rex-HEK293-Kir6.2/SUR1 cells
T2 construct: expressed in transfected cells; also transiently transfected HEK293T
Experimental: The pcDNA3.1-SUR2B plasmid was generously provided by Dr. Colin Nichols (Washington University). The pcDNA5/TO-Kir6.1 plasmid was synthesized by GenScript. […] For selectivity assays, HEK293T cells were cotransfected with Kir6.x and SURX with Lipofectamine LTX and incubated for 48 hours before thallium flux assays.
Stable T-Rex-HEK293-Kir6.1/SUR2B cells or transiently transfected HEK293T cells were plated in polyamine-coated, clear-bottomed, black-walled 384-well plates and were cultured (37°C/5% CO2) overnight in Dulbecco’s modified Eagle’s medium (Gibco, Carlsbad, CA, 11995-065) containing 10% FBS (2 mM Penicillin-Streptomycin). The following day, cells were washed with assay buffer (i.e., Hanks’ balanced salt solution/20 mM HEPES) and loaded for 1 hour with thallium sensor dye Brilliant Thallium (Ion Bioscience, San Marcos, TX) at room temperature. Dye-loaded cells were washed with assay buffer and transferred to a Panoptic Kinetic Imaging Plate Reader (Wavefront Bioscience, Franklin, TN). Control and test compound treatments were for 4 minutes prior to adding 0.5 mM chloride-free thallium stimulus buffer (Ion Bioscience) to initiate thallium flux.

[2] = pinacidil-activated, read-out: Kir6.1/SUR2B IC50

T1 sequence (O60706 1-1549 isoform O60706-2, species assumed): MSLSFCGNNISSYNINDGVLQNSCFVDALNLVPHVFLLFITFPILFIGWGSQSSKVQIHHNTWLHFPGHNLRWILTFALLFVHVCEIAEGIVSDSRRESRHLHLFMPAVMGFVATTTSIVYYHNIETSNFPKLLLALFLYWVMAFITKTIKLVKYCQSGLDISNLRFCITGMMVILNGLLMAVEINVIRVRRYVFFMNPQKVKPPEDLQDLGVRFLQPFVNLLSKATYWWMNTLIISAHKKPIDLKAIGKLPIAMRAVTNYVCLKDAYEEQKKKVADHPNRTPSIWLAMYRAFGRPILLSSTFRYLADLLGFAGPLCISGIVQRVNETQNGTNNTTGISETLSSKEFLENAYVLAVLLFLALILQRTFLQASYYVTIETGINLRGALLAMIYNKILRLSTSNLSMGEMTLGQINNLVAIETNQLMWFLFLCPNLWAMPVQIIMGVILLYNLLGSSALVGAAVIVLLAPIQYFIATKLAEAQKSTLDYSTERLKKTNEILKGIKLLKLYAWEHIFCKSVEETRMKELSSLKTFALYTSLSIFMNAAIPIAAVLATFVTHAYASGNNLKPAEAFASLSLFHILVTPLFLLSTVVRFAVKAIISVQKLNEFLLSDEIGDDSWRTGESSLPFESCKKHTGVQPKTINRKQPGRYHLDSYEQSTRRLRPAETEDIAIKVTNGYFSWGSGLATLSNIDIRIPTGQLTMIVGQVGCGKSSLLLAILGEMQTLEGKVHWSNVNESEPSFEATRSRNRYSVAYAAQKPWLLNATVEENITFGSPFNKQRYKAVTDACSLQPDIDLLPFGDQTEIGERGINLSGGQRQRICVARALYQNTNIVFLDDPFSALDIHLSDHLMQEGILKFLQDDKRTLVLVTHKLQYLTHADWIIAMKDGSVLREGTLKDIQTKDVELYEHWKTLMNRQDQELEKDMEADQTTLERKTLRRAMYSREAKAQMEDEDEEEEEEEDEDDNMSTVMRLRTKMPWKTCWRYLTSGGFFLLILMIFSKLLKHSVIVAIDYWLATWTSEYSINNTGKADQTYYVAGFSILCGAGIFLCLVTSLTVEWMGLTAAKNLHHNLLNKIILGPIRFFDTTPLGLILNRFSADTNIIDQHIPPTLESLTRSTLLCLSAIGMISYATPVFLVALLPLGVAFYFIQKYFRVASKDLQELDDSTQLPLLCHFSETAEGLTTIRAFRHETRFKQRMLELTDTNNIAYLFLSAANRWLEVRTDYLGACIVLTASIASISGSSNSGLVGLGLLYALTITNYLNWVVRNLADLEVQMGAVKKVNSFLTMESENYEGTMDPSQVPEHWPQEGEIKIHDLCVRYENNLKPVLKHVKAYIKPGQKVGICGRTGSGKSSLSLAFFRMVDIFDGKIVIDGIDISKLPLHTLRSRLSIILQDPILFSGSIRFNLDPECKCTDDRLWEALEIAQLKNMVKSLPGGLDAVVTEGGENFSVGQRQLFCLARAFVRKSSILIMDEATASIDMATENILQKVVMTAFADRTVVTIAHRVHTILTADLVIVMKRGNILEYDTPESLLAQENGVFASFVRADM
T1 sequence (Q15842 whole entry partner, species assumed): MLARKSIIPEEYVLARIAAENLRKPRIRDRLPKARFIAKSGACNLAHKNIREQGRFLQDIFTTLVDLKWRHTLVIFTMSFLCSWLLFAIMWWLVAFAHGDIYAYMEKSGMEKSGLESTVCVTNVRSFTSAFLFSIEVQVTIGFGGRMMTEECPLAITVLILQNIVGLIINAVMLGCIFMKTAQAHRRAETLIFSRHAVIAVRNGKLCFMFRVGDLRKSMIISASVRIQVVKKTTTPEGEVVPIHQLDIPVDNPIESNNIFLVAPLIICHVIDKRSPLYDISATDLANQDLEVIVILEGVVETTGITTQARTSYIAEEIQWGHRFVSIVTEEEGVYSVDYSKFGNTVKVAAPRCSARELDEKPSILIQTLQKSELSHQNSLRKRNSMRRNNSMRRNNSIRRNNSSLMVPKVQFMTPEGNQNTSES
T2 sequence (Q09428 whole entry, species assumed): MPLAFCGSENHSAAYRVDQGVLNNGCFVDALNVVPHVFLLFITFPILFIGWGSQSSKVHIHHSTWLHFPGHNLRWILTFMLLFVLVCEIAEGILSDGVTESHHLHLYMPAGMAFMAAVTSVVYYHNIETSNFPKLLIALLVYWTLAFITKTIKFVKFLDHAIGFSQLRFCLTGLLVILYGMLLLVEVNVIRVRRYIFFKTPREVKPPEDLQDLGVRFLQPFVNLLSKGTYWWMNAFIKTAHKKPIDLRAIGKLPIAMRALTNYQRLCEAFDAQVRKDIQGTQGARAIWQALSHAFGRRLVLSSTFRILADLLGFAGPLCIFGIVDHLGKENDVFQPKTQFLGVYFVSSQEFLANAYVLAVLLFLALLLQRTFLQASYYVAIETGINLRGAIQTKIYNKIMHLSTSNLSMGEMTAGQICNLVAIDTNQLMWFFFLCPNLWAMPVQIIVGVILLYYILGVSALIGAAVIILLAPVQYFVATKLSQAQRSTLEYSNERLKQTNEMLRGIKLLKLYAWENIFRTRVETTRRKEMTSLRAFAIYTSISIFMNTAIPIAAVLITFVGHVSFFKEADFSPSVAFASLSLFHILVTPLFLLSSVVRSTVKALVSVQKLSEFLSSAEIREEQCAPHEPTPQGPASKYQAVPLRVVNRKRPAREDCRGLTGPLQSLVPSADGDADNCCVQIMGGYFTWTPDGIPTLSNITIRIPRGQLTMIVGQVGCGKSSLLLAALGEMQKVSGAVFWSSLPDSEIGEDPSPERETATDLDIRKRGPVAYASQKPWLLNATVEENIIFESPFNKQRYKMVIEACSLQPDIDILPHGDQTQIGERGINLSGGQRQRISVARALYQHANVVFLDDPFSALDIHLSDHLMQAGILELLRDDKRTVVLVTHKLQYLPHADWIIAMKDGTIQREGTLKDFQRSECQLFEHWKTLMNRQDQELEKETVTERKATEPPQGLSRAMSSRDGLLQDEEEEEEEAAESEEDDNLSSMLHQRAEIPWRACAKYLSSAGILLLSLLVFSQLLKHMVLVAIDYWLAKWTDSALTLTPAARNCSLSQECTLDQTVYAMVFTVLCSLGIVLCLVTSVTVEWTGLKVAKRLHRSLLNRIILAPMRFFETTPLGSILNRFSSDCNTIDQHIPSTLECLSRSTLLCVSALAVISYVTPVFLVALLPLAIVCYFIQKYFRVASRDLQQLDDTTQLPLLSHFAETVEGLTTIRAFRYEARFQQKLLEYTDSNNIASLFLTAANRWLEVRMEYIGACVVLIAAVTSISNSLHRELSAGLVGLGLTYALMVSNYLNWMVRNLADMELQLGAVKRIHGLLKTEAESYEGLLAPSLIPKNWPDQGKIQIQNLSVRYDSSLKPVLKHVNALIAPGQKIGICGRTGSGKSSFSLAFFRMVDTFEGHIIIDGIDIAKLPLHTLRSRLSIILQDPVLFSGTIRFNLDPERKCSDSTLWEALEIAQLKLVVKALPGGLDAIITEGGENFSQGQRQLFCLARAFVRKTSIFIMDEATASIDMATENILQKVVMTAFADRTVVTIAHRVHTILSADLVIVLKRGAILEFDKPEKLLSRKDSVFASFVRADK
T2 sequence (Q14654 whole entry partner, species assumed): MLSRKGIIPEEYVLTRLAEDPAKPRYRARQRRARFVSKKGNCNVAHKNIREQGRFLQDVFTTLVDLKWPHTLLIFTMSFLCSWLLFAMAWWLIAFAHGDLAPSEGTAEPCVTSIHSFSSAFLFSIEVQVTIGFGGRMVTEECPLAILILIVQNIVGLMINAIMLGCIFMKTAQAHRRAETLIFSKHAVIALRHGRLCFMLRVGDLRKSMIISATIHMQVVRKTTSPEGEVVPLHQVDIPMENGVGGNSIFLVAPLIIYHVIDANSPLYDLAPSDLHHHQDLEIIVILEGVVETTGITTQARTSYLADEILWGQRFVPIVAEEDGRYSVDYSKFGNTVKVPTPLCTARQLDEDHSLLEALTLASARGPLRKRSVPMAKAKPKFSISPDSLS

Row | Structure (SMILES) | IC50 (Kir6.1/SUR2B; [2]) | further results
1 | Cn1nc(CNC(=O)Nc2cccc(C(F)(F)F)c2)cc1-c1ccncc1 [compound 10] | 857 nM | 
2 | COc1ccc(Cl)cc1C(=O)NCCc1ccc(S(=O)(=O)NC(=O)NC2CCCCC2)cc1 [glibenclamide, reference compound] |  | ductus arteriosus vessel constriction ([1]; increasing concentrations, compound alone): constricted in a concentration-dependent manner; ductus arteriosus vessel constriction in the presence of pinacidil ([1]; with 10 µM pinacidil): substantially blunted vasoconstrictive effects; IC50 (Kir6.1/SUR2B; transfected HEK-293 cells, pinacidil activation, read-out: Kir6.1/SUR2B IC50 (Fig. 4C)): 115 nM
3 | Cn1nc(CNC(=O)Nc2cccs2)cc1-c1ccncc1 [compound 9] | 6130 nM | 
4 | O=C(NCC1(c2ccc(F)cc2)CC1)Nc1cccs1 [compound 11] | 987 nM | 
5 | Cn1nc(CNC(=O)Nc2cccs2)c2ccccc2c1=O [compound 12] | 780 nM | 
6 | CC(N/C(=N\C#N)Nc1ccncc1)C(C)(C)C (centres unmarked) [pinacidil, reference compound] |  | effect on Kir6.2/SUR1 thallium flux (opening) (Kir6.2/SUR1): no effect
7 | Cc1nc(-c2ccccc2F)sc1CNC(=O)Nc1cccs1 [compound 5] | 545 nM | 

Second part, led by results:

Row | IC50 (Kir6.1/SUR2B; [2]) | Structure (SMILES) | further results
8 | 12600 nM | Cc1nc(-c2cccs2)sc1CNC(=O)Nc1ccncc1 [compound 7] | Kir6.1/SUR2B inhibition, SAR in words (Kir6.1/SUR2B): very weak
9 | 1620 nM | Cc1nc(-c2cccs2)sc1CNC(=O)Nc1cccnc1 [compound 6] | Kir6.1/SUR2B inhibition, SAR in words (Kir6.1/SUR2B): very weak
10 | 527 nM | O=C(NCc1cc(-c2ccncc2)n(C2CCCC2)n1)Nc1cccs1 [compound 8] | 
